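Where inhibition never reached the appropriate level, the endpoint shown equals the highest concentration tested. Otherwise, values were interpolated linearly from a five-concentration, 48-hour dose response in 96-well plates. Definition used: TGI = concentration required for complete inhibition of growth.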
Key:
Assay in all cases: NCI-60 cell line screen, 48 h
HT29 colon = test system: HT29 colon
KM12 colon = test system: KM12 colon
M14 melanoma = test system: M14 melanoma
MDA-MB-435 = test system: MDA-MB-435
NCI-H460 lung = test system: NCI-H460 lung
SF-295 CNS = test system: SF-295 CNS
SK-MEL-2 melanoma = test system: SK-MEL-2 melanoma
U251 CNS = test system: U251 CNS
NCI-H522 lung = test system: NCI-H522 lung
OVCAR-4 ovarian = test system: OVCAR-4 ovarian

SMILES | TGI (HT29 colon) [µM] | TGI (KM12 colon) [µM] | TGI (M14 melanoma) [µM] | TGI (MDA-MB-435) [µM] | TGI (NCI-H460 lung) [µM] | TGI (SF-295 CNS) [µM] | TGI (SK-MEL-2 melanoma) [µM] | TGI (U251 CNS) [µM] | TGI (NCI-H522 lung) [µM] | TGI (OVCAR-4 ovarian) [µM]
O=C(/C(=C\C(=O)c1cccs1)c1ccsc1)c1ccc(Br)cc1 | > 100 | > 100 | > 100 | > 100 | > 100 | > 100 | > 100 | > 100 | – | –
CCNc1ccc2c(c1)Cc1ccccc1-2 | > 100 | > 100 | > 100 | > 100 | > 100 | > 100 | > 100 | > 100 | > 100 | > 100
O=[N+]([O-])c1ccc2nc(-c3ccccn3)c(-c3ccccn3)nc2c1 | > 100 | > 100 | > 100 | > 100 | > 100 | > 100 | > 100 | > 100 | > 100 | > 100
Cn1nc2n(c1=O)CCCN2 | > 100 | > 100 | – | > 100 | > 100 | > 100 | – | > 100 | > 100 | > 100
CC[N+](C)(CC)CCC(O)(c1ccccc1)c1ccccc1 | > 100 | > 100 | > 100 | > 100 | > 100 | > 100 | > 100 | > 100 | > 100 | > 100
COc1ccc(/C=c2\[nH]c3nc(=O)c(N4CCOCC4)c(N)n3c2=O)cc1 | > 100 | > 100 | > 100 | > 100 | – | > 100 | – | > 100 | > 100 | > 100
Cc1cc(C)c(P2C(=C(O[Si](C(C)C)(C(C)C)C(C)C)C(C)(C)C)C2(c2ccccc2)c2ccccc2)c(C)c1 (stereo not drawn) | > 100 | > 100 | > 100 | > 100 | > 100 | > 100 | > 100 | > 100 | > 100 | > 100
CN1CCN(c2c(Cl)cc(Cl)c3[nH]c4ccccc4c(=O)c23)CC1 | 16.1 | 23 | 19.5 | 19.8 | 24.1 | 20.3 | 28.1 | 19.7 | 19.2 | 46.2
N/N=C1/C2CN3CCN(C2)CC1(c1ccc([N+](=O)[O-])cc1)C3 | > 100 | > 100 | – | > 100 | – | > 100 | > 100 | > 100 | > 100 | > 100
CC(=O)/C(=C/n1c(=S)[nH]c2ccccc21)C(=O)Nc1ccccc1C | > 100 | > 100 | > 100 | > 100 | > 100 | > 100 | > 100 | > 100 | – | > 100
COc1ccc(N(C)C(=O)N(C)c2ccc([N+](=O)[O-])cc2)cc1 | > 100 | 91.6 | > 100 | 18.6 | > 100 | – | 45.3 | > 100 | > 100 | > 100
COc1cc2nc(-c3ccc4ccccc4c3)[nH]c(=O)c2cc1OC | > 100 | > 100 | > 100 | – | > 100 | > 100 | > 100 | – | > 100 | > 100
COC1OC(Cc2nnc(C)o2)C(OCc2ccccc2)C(OCc2ccccc2)C1OCc1ccccc1 (stereo not drawn) | 63.3 | 42.3 | > 100 | 39.2 | 87 | 52.6 | 29.2 | > 100 | 52.7 | > 100
Cc1ccc(C(=O)O)c(CC2Cc3c(C)cccc3C2=O)c1 (stereo not drawn) | > 100 | > 100 | > 100 | > 100 | > 100 | > 100 | > 100 | > 100 | > 100 | > 100
C[C@@H](O)C(=O)N1[C@@H]2CC3CC[C@]2(CS1(=O)=O)C3(C)C | > 100 | > 100 | > 100 | > 100 | > 100 | > 100 | > 100 | > 100 | – | > 100
CCOC(=O)C(NC(=O)N(C1=NCC(C)S1)C1CCCCC1)(OC)C(F)(F)F (stereo not drawn) | 53 | > 100 | > 100 | > 100 | > 100 | > 100 | > 100 | 53.6 | 83.4 | > 100
COc1cccc(CC(C)NCC(O)c2ccc(O)c(O)c2)c1 (stereo not drawn) | > 100 | > 100 | > 100 | > 100 | > 100 | > 100 | > 100 | > 100 | > 100 | > 100
OCC1OC(n2cnc3cncnc32)C(O)C1O (stereo not drawn) | 2.89 | 6 | – | – | 1.49 | 8.32 | 3.41 | 4.58 | 5.42 | 2.63
Cc1ccc(C(C)(C)C[P+](C)(c2ccccc2)c2ccccc2)cc1 | 43.8 | > 45.7 | – | – | > 100 | > 85.2 | 19.7 | > 100 | 19.1 | 63.7
C(=C\c1cccc(/C=C/c2ccccn2)n1)/c1ccccn1 | > 100 | > 100 | > 100 | > 100 | > 100 | > 100 | > 100 | > 100 | 28.8 | > 100
O=C1CCC2(CCO1)OCCO2 | > 100 | > 100 | > 100 | > 100 | > 100 | > 100 | > 100 | > 100 | > 100 | > 100
c1ccc(CCNCc2ccco2)nc1 | > 100 | > 100 | > 100 | > 100 | > 100 | > 100 | > 100 | > 100 | > 100 | > 100
CC1OC2=N[C@@H]1C(=O)N[C@@H](C(C)C)C1=N[C@H](C(=O)N[C@@H](C(C)C)C3=N[C@H](C(=O)N[C@@H](C(C)C)C4=N[C@H](C(=O)N[C@H]2C(C)C)C(C)O4)C(C)O3)C(C)O1 (stereo partly drawn) | > 10 | > 10 | > 10 | > 10 | > 10 | > 10 | > 10 | > 10 | > 10 | > 10

Reference: PubChem BioAssay (NCI)
